This test deals with T1, human Autotaxin (ATX) (Homo sapiens, UniProt Q13822).
T1 construct: used as template in overlapping PCR to generate a full length human ENPP2 ORF with or without a 3′-6×His tag; 6xHis (C); made in house; host or cells: FreeStyle 293-F cells (transient transfection, protein purified from culture supernatant)
As to the kind of experiment: Human ATX enzyme inhibition assay (LPC substrate, choline oxidase/HRP/Amplex Red coupled format). It counts as biochemical. The following applies: recombinant hATX 1 nM, 18:1 LPC 30 μM, fluorescence at 90 min minus 5 min. The method, then: Human ATX Enzyme Inhibition Assay
To identify inhibitors of the human Autotaxin (ATX) enzyme an in-vitro biochemical profiling assay has been developed using lysophosphatidylcholine (LPC) as substrate and recombinant enzyme. ATX activity is assayed via a coupled enzyme format where choline produced from LPC hydrolysis is converted to hydrogen peroxide by choline oxidase (CO). Hydrogen peroxide is in turn used as a co-substrate by horseradish peroxidase (HRP) to oxidise Amplex Red® and generate the red-fluorescent product, Resorufin.
50 mM Tris-HCl (pH 8.0); 120 mM NaCl; 20 mM CaCl2); 5 mM KCl; 1 mM MgCl2; 0.01% Triton X-100, sterile-filtered and stored at 4° C.
50 mM Tris-HCl (pH 8.0); 150 mM NaCl human Autotaxin (hATX): 0.97 mg/ml (9.718 μM) Molecular weight 99817. Working solution of 1.5 μM used in this assay.
100 mM 18:1 LPC dissolved in reagent dilution-buffer.
500 U/ml Choline Oxidase in reagent dilution buffer.
2540 U/ml Horseradish Peroxidase, in reagent dilution buffer (10.95 mg/ml).
20 mM Amplex Red (10-Acetyl-3,7-dihydroxy-phenoxazin) in DMSO.
Black, 384-well plate, black with clear bottom, non-treated surface.
Test compounds are received pre-diluted in DMSO as an 11-point concentration-response (0.5 mM highest concentration; 1 in 3.162 dilution). Test compounds are pre-diluted 1:1 (10 μL compound+10 μL assay buffer) in a 96-well conical bottomed plate prior to use.
ATX is diluted to 2.2 nM in assay buffer. Choline oxidase and horseradish peroxidase are diluted to 7.3 U/ml and 14.7 U/ml, respectively. 18:1 LPC and Amplex Red® are diluted to 110 μM and 183.3 μM, respectively (solution protected from light). 2.2 μL of compound pre-dilution or 50% DMSO is added to the reaction plate followed by 25 μL of ATX or assay buffer (negative control). Assay plate is mixed and incubated at room temperature for 10 mins. 15 μL of choline oxidase/horseradish peroxidase is then added. To initiate the reaction 15 μL of LPC 18:1/Amplex Red is added. Assay plate is mixed and incubated at room temperature in the dark. Fluorescence is measured at 5 mins (for background subtraction) and 90 mins.
• hATX: 1 nM • 18:1 LPC: 30 μM • Choline Oxidase: 2 U/ml • Horse Radish Peroxidase: 4 U/ml • Amplex Red®: 50 μM • DMSO: 2%
Fluorescence at 5-minutes is subtracted from the 90-minute end point data and normalized with respect to the positive control. IC50 values are calculated.
Results in the enzymatic ATX inhibition assay are provided for compounds of formula (I).

From patent US12600712B2 (Hoffmann-La Roche Inc., priority 2020, dated 2026) come the findings set out here.

One may read the IC50 as the concentration at which inhibition is half-maximal. With `O=C(c1cnc(NC2Cc3cc(Cl)cc(F)c3C2)nc1)N1CCC12COC2` (racemic) [Example 8, (2-((6-chloro-4-fluoro-2,3-dihydro-1H-inden-2-yl)amino)pyrimidin-5-yl)(6-oxa-1-azaspiro[3.3]heplan-l-yl)melhanone], the IC50 turned out to be 111 nM.

`O=C(c1cnc(NC2Cc3cc(Cl)cc(F)c3C2)nc1)N1CCC12COC2` (single isomer, unassigned) [Example 16, (S or R)-(2-((6-chloro-4-fluoro-2,3-dihydro-1H-inden-2-yl)amino)pyrimidin-5-yl)(6-oxa-1-azaspiro[3.3]heptan-1-yl)methanone]: the IC50 worked out at 45.1 nM. As to `O=C(c1cnc(NC2Cc3cc(Cl)cc(Cl)c3C2)nc1)N1CCC12COC2` (stereo not shown) [Example 1], the IC50 is 13 nM. For `Cc1cc(Cl)cc2c1CC(Nc1ncc(C(=O)N3CCC34COC4)cn1)C2` (stereo not shown) [Example 2, (2-((6-chloro-4-methyl-2,3-dihydro-1H-inden-2-yl)amino)pyrimidin-5-yl)(6-oxa-1-azaspiro[3.3]heptan-1-yl)methanone], the IC50 came out at 62 nM. `O=C(c1cnc(NC2Cc3ccc(Cl)c(Cl)c3C2)nc1)N1CCC12COC2` (stereo not shown) [Example 3, (2-((4,5-dichloro-2,3-dihydro-1H-inden-2-yl)amino)pyrimidin-5-yl)(6-oxa-1-azaspiro[3.3]heptan-1-yl)methanone]: the IC50 is 128 nM. As for `N#Cc1cc(Cl)cc2c1CC(Nc1ncc(C(=O)N3CCC34COC4)cn1)C2` (stereo not shown) [Example 4, 2-((5-(6-oxa-1-azaspiro[3.3]heptane-1-carbonyl)pyrimidin-2-yl)amino)-6-chloro-2,3-dihydro-1H-indene-4-carbonitrile], the figure is 20.8 nM; as for `O=C(c1cnc(NC2Cc3cc(Cl)cc(OC(F)F)c3C2)nc1)N1CCC12COC2` (stereo not shown) [Example 5], 224 nM; as for `Cc1c(Cl)ccc2c1CC(Nc1ncc(C(=O)N3CCC34COC4)cn1)C2` (stereo not shown) [Example 6], 101 nM. The figure for `CC#Cc1cc(Cl)cc2c1CC(Nc1ncc(C(=O)N3CCC34COC4)cn1)C2` (stereo not drawn) [Example 7, (2-((6-chloro-4-(prop-l-yn-1-yl)-2,3-dihydro-lH-inden-2-yl)amino)pyrimidin-5-yl)(6-oxa-1-azaspiro[3.3]heplan-l-yl)methanone] is 23.7 nM. As for `O=C(c1cnc(NC2Cc3ccc(Cl)c(F)c3C2)nc1)N1CCC12COC2` (stereo not drawn) [Example 9, (2-((5-chloro-4-fluoro-2,3-dihydro-lH-inden-2-yl)amino)pyrimidin-5-yl)(6-oxa-1-azaspiro[3.3]heplan-l-yl)methanone], the figure is 123 nM; as for `O=C(c1cnc(NC2Cc3cc(Cl)cc(C(F)(F)F)c3C2)nc1)N1CCC12COC2` (stereo not shown) [Example 10, (2-((6-chloro-4-(trifluoromethyl)-2,3-dihydro-1 H-inden-2-yl)amino)pyrimidin-5-yl)(6-oxa-1-azaspiro[3.3]heptan-1-yl)melhanone], 184 nM; as for `N#Cc1cc(Cl)cc2c1C[C@@H](Nc1ncc(C(=O)N3CCC34COC4)cn1)C2` [Example 11, (S)-2-((5-(6-oxa-1-azaspiro[3.3]heptane-1-carbonyl)pyrimidin-2-yl)amino)-6-chloro-2,3-dihydro-1H-indene-4-carbonitrile], 7.4 nM.

As for `CC1(C)CCN1C(=O)c1cnc(N[C@H]2Cc3cc(Cl)cc(C#N)c3C2)nc1` [Example 12, (S)-6-chloro-2-((5-(2,2-dimethylazetidine-1-carbonyl)pyrimidin-2-yl)amino)-2.3-dihydro-1H-indene-4-carbonitrile], the IC50 came out at 6.5 nM. Regarding `N#Cc1cc(Cl)cc2c1C[C@@H](Nc1ncc(C(=O)N3CCC34CC(F)(F)C4)cn1)C2` [Example 13, (S)-6-chloro-2-((5-(6,6-difluoro-1-azaspiro[3.3]heptane-1-carbonyl)pyrimidin-2-yl)amino)-2,3-dihydro-1H-indene-4-carbonitrile], the IC50 turned out to be 3 nM. In the case of `C[C@]1(O)C[C@]2(CCN2C(=O)c2cnc(N[C@H]3Cc4cc(Cl)cc(C#N)c4C3)nc2)C1` [Example 14, (cis)-6-chloro-2-(S)-((5-(6-hydroxy-6-methyl-1-azaspiro[3.3]heptane-1-carbonyl)pyrirnidin-2-yl)amino)-2,3-dihydro-1H-indene-4-carbonitrile], the IC50 is 5.5 nM. As for `O=C(c1cnc(NC2Cc3cccc(Cl)c3C2)nc1)N1CCC12COC2` (stereo not shown) [Example 15, (2-((4-chloro-2,3-dihydro-1H-inden-2-yl)amino)pyrimidin-5-yl)(6-oxa-1-azaspiro[3.3]heptan-1-yl)methanone], the figure is 282 nM.
